Tests used:
[1] = Metabolite identification, human cryopreserved hepatocyte incubation of parent compound; assay type: in vitro ADME; details: parent incubated up to four hours
Experimental: (§1) Hepatocytes: Rat, dog and human cryopreserved hepatocyte incubations were performed using 1-{2-[5-(3-Methyl-oxetan-3-ylmethoxy)-benzoimidazol-1-yl]-quinolin-8-yl}-piperidin-4-ylamine. Rat, dog and human cryopreserved hepatocytes were obtained from In Vitro Technologies, Baltimore, Md. and suspended in Williams E Media, available from Fisher-Scientific, to a final cell density of 1×10^6 viable cells/mL. 1-{2-[5-(3-Methyl-oxetan-3-ylmethoxy)-benzoimidazol-1-yl]-quinolin-8-yl}-piperidin-4-ylamine was incubated in these hepatocyte suspensions at a final concentration of […] at 37° C. in a shaking water bath for up to four hours. A 5 mL aliquot was removed from each incubation mixture immediately and at four hours after addition of substrate. The samples were prepared for analysis by mixing with two volumes of acetonitrile followed by centrifugation to pellet precipitated proteins. The […] were evaporated to dryness before analysis. Dried samples were reconstituted in 300 μL 50/50 10 mM ammonium formate, pH 3.0/acetonitrile, and 10 μL aliquots were analyzed by LC/MS/MS. 1-{2-[5-(2-Methoxy-ethoxy)-benzoimidazol-1-yl]-quinolin-8-yl}-piperidin-4-ylamine was incubated in dog hepatocytes under the same conditions as a positive control.
(§2) Separation of 1-{2-[5-(3-Methyl-oxetan-3-ylmethoxy)-benzoimidazol-1-yl]-quinolin-8-yl}-piperidin-4-ylamine and its metabolites in all samples was accomplished on a Zorbax SB-C18 reverse phase column (5 μm, 4.6×150 mm) at a flow rate of 1.0 mL/min. The mobile phase consisted of 10 mM ammonium formate, pH 3.0, (A) and acetonitrile (B). After injection of the sample, the column was washed with 10% B for 5 minutes followed by resolution of the metabolites with a linear gradient from 10% to 50% B over a 20-minute period. A 5-minute wash with 90% B followed by a 7-minute re-equilibration to 10% B was used between subsequent injections.
(§3) All Samples were analyzed by a Finnigan TSQ7000 mass spectrometer operated in positive ion mode with in-line ultraviolet detection (Shimadzu, λ=254 nm). Ionspray voltage and capillary temperature were maintained at 4.5 kV and 350 degrees Celsius, respectively. Product ion spectra were obtained with CID of 35 V; further fragmentation was obtained by conducting product ion scans with source CID of 10 V. Neutral loss scans of 176 (for glucuronide detection) were conducted with CID of 30 V.
(§4) The metabolites were initially identified by molecular ion (Q1) scans of the sample mixture. Potential metabolites were characterized by fragmentation of the metabolite molecular ions and comparison of the resulting fragmentation patterns with the 1-{2-[5-(3-Methyl-oxetan-3-ylmethoxy)-benzoimidazol-1-yl]-quinolin-8-yl}-piperidin-4-ylamine product mass spectrum.

[2] = Metabolite identification, rat cryopreserved hepatocyte incubation of parent compound; assay type: in vitro ADME; details: parent incubated up to four hours
Experimental: as §1, §2, §3, §4

[3] = Metabolite identification, dog cryopreserved hepatocyte incubation of parent compound; assay type: in vitro ADME; details: parent incubated up to four hours
Experimental: as §1, §2, §3, §4

[4] = Metabolite identification, human liver cytosol incubation of parent compound; assay type: in vitro ADME; details: for Relative Abundance of metabolite, Human Liver Cytosol: parent incubated one hour; as to Relative Abundance of metabolite, Human Liver Cytosol: key: −: metabolite not observed; +: minor metabolite; +++: major metabolite
Experimental: (§5) Cytosol: 1-{2-[5-(3-Methyl-oxetan-3-ylmethoxy)-benzoimidazol-1-yl]-quinolin-8-yl}-piperidin-4-ylamine (10 μM) was incubated and prepared for analysis. Cryopreserved human liver cytosol from Tissue Transformation Technologies Inc., Edison, N.J., (lot: HHC-0255, ˜20 mg/mL) and dog liver cytosol (˜35 mg/mL) were thawed on ice immediately before the incubation. The cytosol was diluted 10-fold in 100 mM potassium phosphate buffer (pH 7.4) before addition of 1-{2-[5-(3-Methyl-oxetan-3-ylmethoxy)-benzoimidazol-1-yl]-quinolin-8-yl}-piperidin-4-ylamine (final concentration […]) for a final incubation volume of 2 mL. Samples were incubated for one hour in a 37° C. water bath, then quenched with two volumes of acetonitrile. Samples were vortexed and subsequently centrifuged at 3000 rpm. Samples were prepared for analysis by centrifugation at 3000 rpm to pellet the precipitated proteins and by evaporating the supernatant to dryness. The samples were reconstituted in 300 μL 50/50 10 mM ammonium formate, pH 3.0/acetonitrile. A 10 μL reconstituted aliquot was analyzed by LC/MS/MS. 1-{2-[5-(2-Methoxy-ethoxy)-benzoimidazol-1-yl]-quinolin-8-yl}-piperidin-4-ylamine was incubated in human and dog liver cytosol under the same conditions as a positive control.
as §2, §3, §4

[5] = Metabolite identification, dog liver cytosol incubation of parent compound; assay type: in vitro ADME; details: for Relative Abundance of metabolite, Dog Liver Cytosol: parent incubated one hour
Experimental: as §5, §2, §3, §4

[6] = Metabolite identification in dog plasma after intravenous administration of parent compound; assay type: in vivo, beagle dogs; details: for Relative Abundance of metabolite, Dog Plasma (IV): 2.0 mg/kg intravenous parent, 20 min, 40 min and 1 h samples
Experimental: Dog Plasma and Bile: Dog plasma was collected from beagle dogs following intravenous administration (2.0 mg/kg) of 1-{2-[5-(3-Methyl-oxetan-3-ylmethoxy)-benzoimidazol-1-yl]-quinolin-8-yl}-piperidin-4-ylamine. A 200 μL plasma sample from each dog was pooled for each timepoint. Three volumes of acetonitrile were added to the pooled plasma samples to precipitate proteins. Following centrifugation, the supernatant was recovered and dried at 37° C. under nitrogen and reconstituted in 150 μL 50/50 10 mM ammonium formate, pH 3.0/acetonitrile. A 20 μL aliquot was analyzed by LC/MS/MS.
as §2, §3, §4

[7] = Metabolite identification in dog bile after administration of parent compound; assay type: in vivo, beagle dogs; details: for Relative Abundance of metabolite, Dog Bile (IV): only 2-4 hr samples analyzed, cannot distinguish between M6 and M7; for Excretion in bile: dog, after 5.0 mg/kg oral administration of parent
[8] = target: T1, microsomal epoxide hydrolase (Homo sapiens, UniProt P07099); assay: Microsomal epoxide hydrolase inhibitor studies; assay type: in vitro ADME
T1 sequence (P07099 1-455): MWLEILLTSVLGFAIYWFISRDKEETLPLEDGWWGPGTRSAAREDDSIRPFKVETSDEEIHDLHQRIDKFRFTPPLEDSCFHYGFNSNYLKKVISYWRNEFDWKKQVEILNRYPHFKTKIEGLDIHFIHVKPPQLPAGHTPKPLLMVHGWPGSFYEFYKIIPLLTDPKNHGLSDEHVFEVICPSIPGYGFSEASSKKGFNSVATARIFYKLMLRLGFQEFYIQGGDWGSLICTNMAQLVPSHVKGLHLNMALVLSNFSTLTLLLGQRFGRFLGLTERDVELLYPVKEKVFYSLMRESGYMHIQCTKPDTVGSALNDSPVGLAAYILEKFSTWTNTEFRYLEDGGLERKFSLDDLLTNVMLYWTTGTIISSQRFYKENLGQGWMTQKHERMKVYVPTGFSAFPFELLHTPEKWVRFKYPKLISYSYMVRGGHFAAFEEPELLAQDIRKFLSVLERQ

[9] = Metabolite identification, human liver microsome incubation of parent compound; assay type: in vitro ADME; details: for Relative Abundance of metabolite, HLM-NADPH ctrl: human liver microsomes, control without NADPH; for Relative Abundance of metabolite, Human Liver Microsomes: parent incubated 1 h with NADPH, relative peak height on UV chromatogram
Experimental: (§6) Microsomes: 1-{2-[5-(3-Methyl-oxetan-3-ylmethoxy)-benzoimidazol-1-yl]-quinolin-8-yl}-piperidin-4-ylamine (10 μM) was incubated in mouse, rat, dog, monkey and human liver microsomes and collected for analysis. 1-{2-[5-(3-Methyl-oxetan-3-ylmethoxy)-benzoimidazol-1-yl]-quinolin-8-yl}-piperidin-4-ylamine, (final concentration […]) was incubated in mouse (0.45 mg/mL protein), rat ([…] protein), dog ([…] protein), monkey (0.42 mg/mL protein) and human liver microsomes (1.56 mg/mL protein) containing MgCl2 (10 mM) and NADPH (1 mM) in potassium phosphate buffer (100 mM, pH 7.4) at 37° C. The total volume of each reaction mixture was 5 mL containing a total cytochrome P450 concentration of […]. Each mixture was preincubated for 10 minutes before addition of NADPH to initiate the reaction. The reaction was stopped one hour after addition of NADPH by adding two volumes of acetonitrile to the reaction mixture. […] Samples were prepared for analysis by centrifugation at 300 rpm to pellet the precipitated proteins and by evaporating the supernatant to dryness. The dried […] were reconstituted in 600 μL 50/50 10 mM ammonium formate, pH 3.0/acetonitrile, and 10 μL aliquots were analyzed by liquid chromatography and mass spectroscopy (LC/MS/MS). 1-{2-[5-(2-Methoxy-ethoxy)-benzoimidazol-1-yl]-quinolin-8-yl}-piperidin-4-ylamine was incubated in dog liver microsomes under the same conditions as a positive control.
as §2, §3, §4

[10] = Metabolite identification, rat liver microsome incubation of parent compound; assay type: in vitro ADME; details: for Relative Abundance of metabolite, Rat Liver Microsomes: parent incubated 1 h with NADPH; for Relative Abundance of metabolite, RLM-NADPH ctrl: rat liver microsomes, control without NADPH
Experimental: as §6, §2, §3, §4

[11] = Metabolite identification, dog liver microsome incubation of parent compound; assay type: in vitro ADME; details: for Relative Abundance of metabolite, DLM-NADPH ctrl: dog liver microsomes, control without NADPH; for Relative Abundance of metabolite, Dog Liver Microsomes: parent incubated 1 h with NADPH
Experimental: as §6, §2, §3, §4

Structure (SMILES) | Relative Abundance of metabolite, Human Hepatocytes [1] | Relative Abundance of metabolite, Rat Hepatocytes [2] | Relative Abundance of metabolite, Dog Hepatocytes [3] | Relative Abundance of metabolite, Human Liver Cytosol [4] | Relative Abundance of metabolite, Dog Liver Cytosol [5] | Relative Abundance of metabolite, Dog Plasma (IV) [6] | Relative Abundance of metabolite, Dog Bile (IV) [7] | Excretion in bile [7] | Relative Abundance of metabolite, HLM-NADPH ctrl [9] | Relative Abundance of metabolite, Human Liver Microsomes [9] | Relative Abundance of metabolite, Rat Liver Microsomes [10] | Relative Abundance of metabolite, RLM-NADPH ctrl [10] | Relative Abundance of metabolite, DLM-NADPH ctrl [11] | Relative Abundance of metabolite, Dog Liver Microsomes [11] | further results
CC(CO)(COc1ccc2c(c1)ncn2-c1ccc2cccc(N3CCC(N)CC3)c2n1)COC1O[C@H](C(=O)O)[C@@H](O)[C@H](O)[C@H]1O (stereo in doubt) [Metabolite M5, 6-(3-{1-[8-(4-Amino-piperidin-1-yl)-quinolin-2-yl]-1H-benzoimidazol-5-yloxy}-2-hydroxymethyl-2-methyl-propoxy)-3,4,5-trihydroxy-tetrahydro-pyran-2-carboxylic acid] | − | − | + (minor metabolite) | − | − | − | − |  |  |  |  |  |  |  | 
CC1(COc2ccc3c(c2)ncn3-c2ccc3cccc(N4CCC(N)CC4)c3n2)COC1 [1-{2-[5-(3-Methyl-oxetan-3-ylmethoxy)-benzoimidazol-1-yl]-quinolin-8-yl}-piperidin-4-ylamine, reference compound] |  |  |  |  |  |  |  | appears to be excreted in bile |  |  |  |  |  |  | Metabolites in human liver cytosolic incubations ([4]; parent incubated in human liver cytosol): No metabolites were observed; Substrate for microsomal epoxide hydrolase [8]: not a substrate
CC(CO)(CO)COc1ccc2c(c1)ncn2-c1ccc2cccc(N3CCC(N)CC3)c2n1 [Metabolite M1, 2-{1-[8-(4-Amino-piperidin-1-yl)-quinolin-2-yl]-1H-benzoimidazol-5-yloxymethyl}-2-methyl-propane-1,3-diol] | +++ (major metabolite) | +++ (major metabolite) | +++ (major metabolite) | − | +++ (major metabolite) | +++ (major metabolite) | +++ (major metabolite) | excreted in bile | + (minor metabolite) | +++ (major metabolite) | +++ (major metabolite) | + (minor metabolite) | +++ (major metabolite) | +++ (major metabolite) | Formation of M1, cofactor dependence ([9]; human): NADPH dependent; Formation of M1, cofactor dependence ([10]; rat): NADPH dependent; Formation of M1, cytochrome P450 mediation ([11]; dog): not mediated by cytochrome P450; Metabolite status in dog liver cytosolic incubations [5]: predominant metabolite; Metabolite status in dog plasma ([6]; twenty minutes to one hour after 2.0 mg/kg intravenous administration of parent): major metabolite
CC(CO)(COc1ccc2c(c1)ncn2-c1ccc2cccc(N3CCC(N)CC3)c2n1)C(=O)O (stereo not drawn) [Metabolite M2, 3-{1-[8-(4-Amino-piperidin-1-yl)-quinolin-2-yl]-1H-benzoimidazol-5-yloxy}-2-hydroxymethyl-2-methyl-propionic acid] | +++ (major metabolite) | +++ (major metabolite) | + (minor metabolite) | − | − | − | + (minor metabolite) | excreted in bile | − | +++ (major metabolite) | − | − | − | + (minor metabolite) | 
NC1CCN(c2cccc3ccc(-n4cnc5cc(O)ccc54)nc23)CC1 [Metabolite M8, 1-[8-(4-Amino-piperidin-1-yl)-quinolin-2-yl]-1H-benzoimidazol-5-ol] | − | − | − | − | − | − | + (minor metabolite) |  | − | − | − | − | − | − | Observation in bile ([7]; dog bile 2-4 hr post-dose of parent): observed in bile

From US20100016353A1, “BENZOIMIDAZOLE DERIVATIVES USEFUL AS ANTIPROLIFERATIVE AGENTS” (priority 2004, published 2010)
